Values after ≈ are worked out from the molar mass of the structure shown.
How the values were obtained:
S. aureus (UAMS1) = test: Minimum inhibitory concentration, S. aureus UAMS1; format: cell-based; conditions: Staphylococcus aureus; strain UAMS1
[1] = system: S. aureus (UAMS1) biofilm; test: Biofilm CFU on stainless-steel rings, antibiotic with or without iAMF, UAMS1; format: cell-based; conditions: for CFU at 24 h, iAMF and antibiotic versus antibiotic alone: antibiotic 2 μg/mL, iAMF Tmax=65 °C, 15 min per dose at 0 and 12 h
Experimental: Biofilm preparation, treatment and quantification.
Doses were delivered at 0 and 12 hours and ring biofilm burden was quantified at various time points as above. For S. aureus experiments, biofilm of UAMS1 were prepared on stainless steel rings according to the culturing protocol and incubated with 2 μg/mL of ceftriaxone or 2 μg/mL of linezolid, in 10 mL TSB media. […] Doses were delivered at 0 and 12 hours and biofilm burden was quantified at 24 hours.

GFP-PAO1 biofilms = test: Laser scanning confocal microscopy of GFP-PAO1 biofilm; conditions: 0.5 μg/mL
Description: After staining, rings were mounted on a 50 mm glass bottom plate and images were captured with a Zeiss LSM880 Airyscan laser confocal microscope. The GFP-PA01 bacteria and ConA-stained EPS were imaged using a 40× objective lens. Multiple regions of the ring surface were randomly selected, and Z-stacks were acquired with slice step size of 0.5 μm. Before image processing, the z-stacks were deconvolved using Autoquant×3 (Media Cybernetics, MD, USA) to improve the image resolution in X, Y and Z directions. The deconvolved images were analyzed with Imaris x64 9.1.2 (Bitplane AG, Zurich, Switzerland).

[2] = system: P. aeruginosa (MB699) biofilm; test: Scanning electron microscopy of MB699 biofilm; format: cell-based; conditions: 64 μg/mL; for bacterial morphology by SEM, antibiotic alone: 12 h, no iAMF; for bacterial morphology by SEM, iAMF and antibiotic: 12 h post iAMF (Tmax=65 °C, Nexp=12)
Experimental: […]. The rings were carefully transferred to 4 mL PBS, rinsed in 4 mL of 0.1 M sodium cacodylate buffer three times and fixed for 24 h in 4 mL of 2% glutaraldehyde, 2% paraformaldehyde in 0.1 M sodium cacodylate buffer. After rinsing in 4 mL of cacodylate buffer three times, the samples were re-fixed in 4 mL of 2% osmium in 0.1 M sodium cacodylate buffer for 2 h. Then the rings were further rinsed with 4 mL of deionized water five times and dehydrated at room temperature in five steps by placing the rings in 4 mL of 50, 70 (twice), 85, 95 (twice) and 100% ethanol respectively for 5 min per solution. The rings were then transferred to 4 mL of 25, 50, 75 and 100% (twice) hexamethyldisilazane (HMDS) in ethanol consecutively for 15 min each. Finally, the samples were left to dry for 24 h in a fume hood. The specimens were mounted on aluminum stubs, gold/palladium sputter coated, and examined using a Zeiss Sigma VP scanning electron microscope. The images were acquired at 10 kV with magnification of approximately 35000×.

[3] = system: MDR P. aeruginosa (MB699) biofilm; test: Biofilm CFU on rings, antibiotic with or without iAMF, MDR strain MB699; conditions: for CFU reduction with iAMF at other antibiotic concentrations: meropenem sub-MIC 32 μg/mL, ciprofloxacin increased concentration (128 μg/ml), 48 h
[4] = system: MDR P. aeruginosa (MB699); test: microbe, parasite or virus in culture; conditions: Pseudomonas aeruginosa, read-out: minimum inhibitory concentration (MIC)

CO/N=C(\C(=O)N[C@@H]1C(=O)N2C(C(=O)O)=C(CSc3nc(=O)c(=O)[nH]n3C)CS[C@H]12)c1csc(N)n1 [ceftriaxone]
MIC (S. aureus (UAMS1)): 2 µg/mL (≈ 3.61 µM) | CFU after 24 h ([1]; 2 μg/mL ceftriaxone in combination with iAMF (doses at 0 and 12 h)): approaching the limit of detection | CFU at 24 h, iAMF and antibiotic versus antibiotic alone [1]: significantly lower CFU | CFU reduction after 24 h ([1]; ceftriaxone alone, 2 μg/mL): ~2 log | initial decrease of biofilm CFU ([1]; iAMF (Tmax=65 °C, 15 min dose) and 2 μg/mL ceftriaxone, after first dose): over 3 logs

O=C(O)c1cn(C2CC2)c2cc(N3CCNCC3)c(F)cc2c1=O [ciprofloxacin]
bacterial morphology by confocal microscopy, ciprofloxacin only (GFP-PAO1 biofilms; 12 h post-treatment): slight elongation | EPS staining and morphology by confocal microscopy, iAMF and ciprofloxacin (GFP-PAO1 biofilms; iAMF Tmax=65 °C, Nexp=12, 12 h): less dense EPS staining | bacterial morphology by SEM, antibiotic alone [2]: no obvious morphological changes | bacterial morphology by SEM, iAMF and antibiotic [2]: slight lengthening of bacteria and increased wrinkling of the membrane | bacterial burden (CFU) at 48 h with iAMF and antibiotic [3]: did not result in a further reduction of CFU | CFU reduction with iAMF at other antibiotic concentrations [3]: did not lead to enhanced CFU decreases

CC(=O)NC[C@H]1CN(c2ccc(N3CCOCC3)c(F)c2)C(=O)O1 [linezolid]
MIC (S. aureus (UAMS1)): 2 µg/mL (≈ 5.93 µM) | CFU at 24 h, iAMF and antibiotic versus antibiotic alone [1]: significantly lower CFU | magnitude of biofilm reduction, 7-day versus 2-day biofilm ([1]; iAMF (Tmax=65 °C, 15 min per dose) and 2 μg mL-1 linezolid): no significant difference

C[C@@H](O)[C@H]1C(=O)N2C(C(=O)O)=C(S[C@@H]3CN[C@H](C(=O)N(C)C)C3)[C@H](C)[C@H]12 [meropenem]
bacterial morphology by SEM, antibiotic alone [2]: no obvious morphological changes | bacterial morphology by SEM, iAMF and antibiotic [2]: fragmented and deformed bacterial cells | MIC [4]: 64 µg/mL (≈ 167 µM) | CFU reduction with iAMF at other antibiotic concentrations [3]: also seen | interaction of iAMF and antibiotic in MDR strain ([3]; strain with oprD porin and DNA gyrase mutations): synergistic effect
